Test system: HT-29
Assay: Antiproliferative activity against human HT-29 cells
Type: functional, cell-based

Row | IC50 [µM] | Structure (SMILES)
1 | 2 | C/C=C1/NC(=O)[C@H](CC(N)=O)NC(=O)/C(=C\C)NC(=O)[C@H](C(C)C)NC(=O)[C@H](O)[C@@H]([C@@H](C)CCCCCCCC)NC(=O)[C@@H]2CCCN2C(=O)[C@H](CC(N)=O)N(C)C(=O)[C@H]([C@@H](C)O)NC(=O)[C@@H](C)NC(=O)[C@H](CC(N)=O)NC1=O [MINUTISSAMIDE A]
2 | 20 | C/C=C1/NC(=O)[C@H](CC(N)=O)NC(=O)/C(=C\C)NC(=O)[C@H](C(C)C)NC(=O)[C@H](O)[C@@H]([C@@H](C)CCCCCCCCCl)NC(=O)[C@@H]2CCCN2C(=O)[C@H](CC(N)=O)N(C)C(=O)[C@H]([C@@H](C)O)NC(=O)[C@@H](C)NC(=O)[C@H](CC(N)=O)NC1=O [MINUTISSAMIDE B]

From ChEMBL document CHEMBL1811831, “Minutissamides A-D, antiproliferative cyclic decapeptides from the cultured cyanobacterium Anabaena minutissima” (J Nat Prod, 2011)
